Tests used:
[1] = biological target: T1, Human melanin-concentrating hormone (MCH1) (Homo sapiens, UniProt Q99705); experiment: Radioligand binding, human melanin-concentrating hormone MCH1 membranes, FlashPlate, [125I]-S36057; conditions: compound at 10 μM
T1 construct: purchased Perkin Elmer Biosignal
Outline: (§1)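 Cloned human receptor membranes were coated onto FlashPlate wells and incubated with radioligand and compound (added from a 0.5 mM DMSO daughter plate) for 1 hour at room temperature in the dark. Scintillation counting gave percent inhibition, with DMSO defining total and reference ligand defining non-specific binding.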

[2] = biological target: T2, Human δ-opioid (DOP) (Homo sapiens, UniProt P41143); experiment: Radioligand binding, human δ-opioid (DOP) membranes, FlashPlate, [3H]-Bremazocine; conditions: compound at 10 μM, [3H]-Bremazocine
T2 construct: purchased Perkin Elmer Biosignal
Outline: as §1

[3] = biological target: T3, Human neurokinin (NK1) (Homo sapiens, UniProt P25103); experiment: Radioligand binding, human neurokinin NK1 membranes, filtration, [125I]-Substance P; conditions: compound at 10 μM, [125I]-Substance P
T3 construct: purchased Perkin Elmer Biosignal
Outline: (§2)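 Membranes from cloned human receptors were incubated with compound and radioligand for 1 hour at room temperature. Bound ligand was collected on 0.3% PEI-soaked filters, washed with cold 50 mM Tris-HCl pH 7.4, and counted by scintillation. Percent inhibition was computed against DMSO totals and reference-ligand nonspecific wells.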

[4] = biological target: T4, Human opioid (ORL1) (Homo sapiens, UniProt P41146); experiment: Radioligand binding, human opioid ORL1 membranes, FlashPlate, [125I]-Nociceptin; conditions: compound at 10 μM, [125I]-Nociceptin
T4 construct: purchased Perkin Elmer Biosignal
Outline: as §1

[5] = biological target: T5, Human μ-opioid (MOP) (Homo sapiens, UniProt P35372); experiment: Radioligand binding, human μ-opioid (MOP) membranes, FlashPlate, [3H]-Naloxone; conditions: compound at 10 μM, [3H]-Naloxone
T5 construct: purchased Perkin Elmer Biosignal
Outline: as §1

[6] = biological target: T6, Human Melanocortin (MC4) (Homo sapiens, UniProt P32245); experiment: Radioligand binding, human melanocortin MC4 membranes, FlashPlate, [125I]-NDP-αMSH; conditions: compound at 10 μM, [125I]-NDP-αMSH
T6 construct: purchased Perkin Elmer Biosignal
Outline: as §1

[7] = biological target: T7, Human Melanocortin (MC3) (Homo sapiens, UniProt P41968); experiment: Radioligand binding, human melanocortin MC3 membranes, FlashPlate, [125I]-NDP-αMSH; conditions: compound at 10 μM, [125I]-NDP-αMSH
T7 construct: purchased Perkin Elmer Biosignal
Outline: as §1

[8] = biological target: T8, Human neuropeptide Y (NPY-Y1) (Homo sapiens, UniProt P25929); experiment: Radioligand binding, human neuropeptide Y NPY-Y1 membranes, FlashPlate, [125I]-PYY; conditions: compound at 10 μM, [125I]-PYY
T8 construct: purchased Perkin Elmer Biosignal
T8 sequence (P25929 1-384): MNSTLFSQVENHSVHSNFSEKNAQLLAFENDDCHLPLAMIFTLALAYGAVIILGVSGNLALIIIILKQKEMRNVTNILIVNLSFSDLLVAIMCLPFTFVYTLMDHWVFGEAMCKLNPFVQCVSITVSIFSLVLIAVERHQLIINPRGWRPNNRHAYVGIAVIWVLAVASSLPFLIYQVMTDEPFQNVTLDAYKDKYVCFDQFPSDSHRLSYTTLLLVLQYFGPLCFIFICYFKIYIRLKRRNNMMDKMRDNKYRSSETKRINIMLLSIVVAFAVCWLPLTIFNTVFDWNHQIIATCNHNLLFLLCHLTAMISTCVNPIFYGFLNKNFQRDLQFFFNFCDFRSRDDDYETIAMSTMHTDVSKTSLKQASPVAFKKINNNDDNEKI
Outline: as §1

[9] = biological target: T9, Mouse urotensin (mUR2) (Mus musculus, UniProt Q8VIH9); experiment: Radioligand binding, mouse urotensin mUR2 membranes, FlashPlate, [125I]-Urotensin II; conditions: compound at 10 μM, [125I]-Urotensin II
T9 construct: purchased Perkin Elmer Biosignal
T9 sequence (Q8VIH9 1-385): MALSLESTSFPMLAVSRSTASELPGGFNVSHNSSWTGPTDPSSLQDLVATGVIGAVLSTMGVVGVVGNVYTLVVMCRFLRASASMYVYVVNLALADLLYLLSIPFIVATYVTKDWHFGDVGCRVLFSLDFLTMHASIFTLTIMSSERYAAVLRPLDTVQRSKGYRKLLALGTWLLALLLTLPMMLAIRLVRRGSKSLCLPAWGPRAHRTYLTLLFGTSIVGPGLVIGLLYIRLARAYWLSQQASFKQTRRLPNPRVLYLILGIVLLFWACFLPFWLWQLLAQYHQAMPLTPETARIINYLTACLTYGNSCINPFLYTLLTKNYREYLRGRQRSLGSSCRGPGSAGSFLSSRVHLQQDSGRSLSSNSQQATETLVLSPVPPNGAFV
Outline: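 Cloned mouse urotensin (mUR2) receptor membranes from Perkin Elmer Biosignal were immobilized in FlashPlate microplates using a proprietary coating. Each well got 19.5 μl buffer, then 0.5 μl of DMSO, reference ligand, or compound. Adding 5 μl of [125I]-Urotensin II, diluted to 5× final concentration in binding buffer, started binding. Plates were sealed with TopSeal-A and incubated 1 hour at room temperature in the dark. Wells were counted for 30 seconds each on a TopCount after a 60-second delay, and percentage inhibition was calculated.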

[10] = biological target: T10, Human κ-Opioid (KOP) (Homo sapiens, UniProt P41145); experiment: Radioligand binding, human κ-opioid (KOP) membranes, filtration, [3H]-Diprenorphine; conditions: compound at 10 μM, [3H]-Diprenorphine
T10 construct: purchased Perkin Elmer Biosignal
Outline: as §2

[11] = biological target: T11, Human melanocortin (MC5) (Homo sapiens, UniProt P33032); experiment: Radioligand binding, human melanocortin MC5 membranes, FlashPlate, [125I]-NDP-αMSH; conditions: compound at 10 μM, [125I]-NDP-αMSH
T11 construct: purchased Perkin Elmer Biosignal
Outline: as §1

[12] = [125I]-S36057, human MCH1 membranes

T2 sequence (P41143 whole entry): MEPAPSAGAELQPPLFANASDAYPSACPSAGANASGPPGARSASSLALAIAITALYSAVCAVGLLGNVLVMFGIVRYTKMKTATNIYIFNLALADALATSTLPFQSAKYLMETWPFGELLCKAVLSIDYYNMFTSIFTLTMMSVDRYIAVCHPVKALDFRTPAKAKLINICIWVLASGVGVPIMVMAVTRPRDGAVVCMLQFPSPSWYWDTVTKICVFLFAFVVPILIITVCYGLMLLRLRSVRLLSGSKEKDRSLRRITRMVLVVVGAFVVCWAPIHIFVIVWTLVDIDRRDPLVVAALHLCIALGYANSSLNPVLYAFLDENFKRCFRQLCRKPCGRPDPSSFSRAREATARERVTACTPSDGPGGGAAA
T11 sequence (P33032 whole entry): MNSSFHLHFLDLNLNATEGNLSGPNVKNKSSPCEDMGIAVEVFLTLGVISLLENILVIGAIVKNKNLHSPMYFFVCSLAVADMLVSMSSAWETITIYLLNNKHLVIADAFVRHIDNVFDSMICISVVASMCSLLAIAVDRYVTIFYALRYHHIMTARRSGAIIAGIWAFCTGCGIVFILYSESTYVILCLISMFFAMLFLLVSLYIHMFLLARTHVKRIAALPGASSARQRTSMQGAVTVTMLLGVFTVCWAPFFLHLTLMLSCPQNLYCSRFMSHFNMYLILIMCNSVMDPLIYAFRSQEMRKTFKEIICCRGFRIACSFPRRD
T6 sequence (P32245 whole entry): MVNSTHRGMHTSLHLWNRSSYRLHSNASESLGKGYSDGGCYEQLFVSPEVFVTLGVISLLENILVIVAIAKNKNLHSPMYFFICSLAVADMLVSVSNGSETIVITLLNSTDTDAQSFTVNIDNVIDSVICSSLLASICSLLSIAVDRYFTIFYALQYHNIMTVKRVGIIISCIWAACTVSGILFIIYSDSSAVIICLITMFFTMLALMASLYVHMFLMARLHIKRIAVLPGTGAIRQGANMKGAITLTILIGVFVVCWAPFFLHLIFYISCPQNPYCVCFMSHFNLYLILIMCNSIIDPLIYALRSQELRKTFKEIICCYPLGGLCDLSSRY
T3 sequence (P25103 whole entry): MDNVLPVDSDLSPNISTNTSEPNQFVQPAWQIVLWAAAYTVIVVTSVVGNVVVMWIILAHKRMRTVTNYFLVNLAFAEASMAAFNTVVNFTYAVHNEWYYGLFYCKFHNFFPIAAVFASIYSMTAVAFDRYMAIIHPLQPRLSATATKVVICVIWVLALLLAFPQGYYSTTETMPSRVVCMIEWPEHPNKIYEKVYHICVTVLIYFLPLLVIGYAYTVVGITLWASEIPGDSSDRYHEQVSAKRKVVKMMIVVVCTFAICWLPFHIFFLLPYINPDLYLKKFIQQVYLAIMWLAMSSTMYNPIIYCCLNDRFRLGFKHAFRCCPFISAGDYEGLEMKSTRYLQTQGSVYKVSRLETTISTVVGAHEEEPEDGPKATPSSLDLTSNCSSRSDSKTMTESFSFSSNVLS
T5 sequence (P35372 whole entry): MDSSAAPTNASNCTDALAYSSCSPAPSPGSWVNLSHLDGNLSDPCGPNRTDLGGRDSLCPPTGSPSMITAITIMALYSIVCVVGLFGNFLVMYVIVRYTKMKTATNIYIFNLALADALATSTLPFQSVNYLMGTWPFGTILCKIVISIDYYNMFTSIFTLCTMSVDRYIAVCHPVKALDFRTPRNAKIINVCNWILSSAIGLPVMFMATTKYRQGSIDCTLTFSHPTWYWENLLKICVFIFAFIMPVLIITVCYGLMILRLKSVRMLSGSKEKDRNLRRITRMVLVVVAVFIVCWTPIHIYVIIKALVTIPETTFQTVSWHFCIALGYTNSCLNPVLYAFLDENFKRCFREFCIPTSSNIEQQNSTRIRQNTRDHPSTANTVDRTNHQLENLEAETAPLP
T4 sequence (P41146 whole entry): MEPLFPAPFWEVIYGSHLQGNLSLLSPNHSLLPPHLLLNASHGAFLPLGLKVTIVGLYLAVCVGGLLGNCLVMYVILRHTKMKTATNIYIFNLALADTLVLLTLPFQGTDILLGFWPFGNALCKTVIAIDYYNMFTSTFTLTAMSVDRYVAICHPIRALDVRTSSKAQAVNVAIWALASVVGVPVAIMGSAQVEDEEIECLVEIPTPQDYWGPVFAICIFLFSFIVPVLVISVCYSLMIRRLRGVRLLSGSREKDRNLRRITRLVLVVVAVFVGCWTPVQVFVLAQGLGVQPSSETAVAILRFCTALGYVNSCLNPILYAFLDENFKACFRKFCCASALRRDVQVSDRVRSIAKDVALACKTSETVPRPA
T7 sequence (P41968 whole entry): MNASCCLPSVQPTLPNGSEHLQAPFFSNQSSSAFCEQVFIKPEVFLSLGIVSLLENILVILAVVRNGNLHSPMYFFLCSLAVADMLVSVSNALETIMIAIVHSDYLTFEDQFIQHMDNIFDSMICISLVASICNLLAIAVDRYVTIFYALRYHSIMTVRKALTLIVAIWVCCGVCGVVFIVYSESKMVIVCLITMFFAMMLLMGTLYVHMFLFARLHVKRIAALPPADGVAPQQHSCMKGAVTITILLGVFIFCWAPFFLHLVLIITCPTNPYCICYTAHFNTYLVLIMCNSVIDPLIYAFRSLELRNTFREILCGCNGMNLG
T10 sequence (P41145 whole entry): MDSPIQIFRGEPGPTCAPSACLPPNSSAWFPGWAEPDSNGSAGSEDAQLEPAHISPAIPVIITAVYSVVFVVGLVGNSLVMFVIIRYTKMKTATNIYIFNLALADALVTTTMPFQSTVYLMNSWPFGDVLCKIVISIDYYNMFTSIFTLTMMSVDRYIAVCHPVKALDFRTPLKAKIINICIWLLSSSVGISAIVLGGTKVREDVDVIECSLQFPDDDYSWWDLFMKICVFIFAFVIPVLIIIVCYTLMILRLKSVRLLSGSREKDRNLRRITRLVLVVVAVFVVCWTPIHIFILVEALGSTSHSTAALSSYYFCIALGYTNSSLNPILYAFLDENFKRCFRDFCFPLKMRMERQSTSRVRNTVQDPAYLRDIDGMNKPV
T1 sequence (Q99705 whole entry): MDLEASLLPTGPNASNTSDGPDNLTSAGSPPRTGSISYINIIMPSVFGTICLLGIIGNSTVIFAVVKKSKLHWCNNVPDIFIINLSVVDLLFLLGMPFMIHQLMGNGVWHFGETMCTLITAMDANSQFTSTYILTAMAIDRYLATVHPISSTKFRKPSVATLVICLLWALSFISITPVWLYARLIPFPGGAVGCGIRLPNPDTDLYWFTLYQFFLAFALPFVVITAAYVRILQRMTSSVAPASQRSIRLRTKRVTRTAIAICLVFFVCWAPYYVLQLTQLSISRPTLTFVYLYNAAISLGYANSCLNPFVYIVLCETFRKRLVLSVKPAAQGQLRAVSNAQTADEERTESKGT

Row | SMILES | A6: inhibition of radioligand binding [1, 12] | A1: inhibition of radioligand binding ([2]; human DOP membranes) | A8: inhibition of radioligand binding ([3]; human NK1 membranes) | A10: inhibition of radioligand binding ([4]; human ORL1 membranes) | A7: inhibition of radioligand binding ([5]; human MOP membranes) | A4: inhibition of radioligand binding ([6]; human MC4 membranes) | A3: inhibition of radioligand binding ([7]; human MC3 membranes) | A9: inhibition of radioligand binding ([8]; human NPY-Y1 membranes) | A11: inhibition of radioligand binding ([9]; mouse mUR2 membranes) | A2: inhibition of radioligand binding ([10]; human KOP membranes) | A5: inhibition of radioligand binding ([11]; human MC5 membranes) | further results
1 | N=C(N)NCCC(=O)NC1C(OCc2ccc(Cl)cc2)OC(COCc2ccc3ccccc3c2)C(O)C1OCc1ccc(-c2ccccc2)cc1 (stereo not drawn) [compound 432] | + (“+” indicates greater than 50% inhibition at 10 μM) | − (“−” indicates less than 50% inhibition at 10 μM) | + (“+” indicates greater than 50% inhibition at 10 μM) | − (“−” indicates less than 50% inhibition at 10 μM) | − (“−” indicates less than 50% inhibition at 10 μM) | + (“+” indicates greater than 50% inhibition at 10 μM) | + (“+” indicates greater than 50% inhibition at 10 μM) | − (“−” indicates less than 50% inhibition at 10 μM) | − (“−” indicates less than 50% inhibition at 10 μM) | − (“−” indicates less than 50% inhibition at 10 μM) | + (“+” indicates greater than 50% inhibition at 10 μM) | 
2 | COCC1OC(OCc2ccc3ccccc3c2)C(NC(=O)CCNC(=N)N)C(OCc2ccccc2)C1O (stereo not drawn) [compound 232] |  |  |  |  |  |  |  |  |  |  |  | A6: inhibition of radioligand binding ([1]; [125I]-S36057, FlashPlate): − (“−” indicates less than 50% inhibition at 10 μM); A1: inhibition of radioligand binding ([2]; FlashPlate): − (“−” indicates less than 50% inhibition at 10 μM); A8: inhibition of radioligand binding ([3]; filtration): + (“+” indicates greater than 50% inhibition at 10 μM); A10: inhibition of radioligand binding ([4]; FlashPlate): − (“−” indicates less than 50% inhibition at 10 μM); A7: inhibition of radioligand binding ([5]; FlashPlate): − (“−” indicates less than 50% inhibition at 10 μM); A4: inhibition of radioligand binding ([6]; FlashPlate): − (“−” indicates less than 50% inhibition at 10 μM); A3: inhibition of radioligand binding ([7]; FlashPlate): − (“−” indicates less than 50% inhibition at 10 μM); A9: inhibition of radioligand binding ([8]; FlashPlate): − (“−” indicates less than 50% inhibition at 10 μM); A11: inhibition of radioligand binding ([9]; FlashPlate): − (“−” indicates less than 50% inhibition at 10 μM); A2: inhibition of radioligand binding ([10]; filtration): − (“−” indicates less than 50% inhibition at 10 μM); A5: inhibition of radioligand binding ([11]; FlashPlate): − (“−” indicates less than 50% inhibition at 10 μM)
3 | N=C(N)NCC(=O)NC1C(OCc2ccc(Cl)cc2)OC(COCc2ccccc2)C(O)C1OCc1ccc(Cl)cc1 (stereo not drawn) [compound 418] | + (“+” indicates greater than 50% inhibition at 10 μM) | − (“−” indicates less than 50% inhibition at 10 μM) | + (“+” indicates greater than 50% inhibition at 10 μM) | + (“+” indicates greater than 50% inhibition at 10 μM) | − (“−” indicates less than 50% inhibition at 10 μM) | + (“+” indicates greater than 50% inhibition at 10 μM) | + (“+” indicates greater than 50% inhibition at 10 μM) | − (“−” indicates less than 50% inhibition at 10 μM) | − (“−” indicates less than 50% inhibition at 10 μM) | − (“−” indicates less than 50% inhibition at 10 μM) | + (“+” indicates greater than 50% inhibition at 10 μM) | 

— patent publication US20080009418A1, “Selective Inhibitors” (Alchemia LTD., priority 2004, published 2008)
